Measured values: article PMC9421656, “Beyond Retigabine: Design, Synthesis, and Pharmacological Characterization of a Potent and Chemically Stable Neuronal Kv7 Channel Activator with Anticonvulsant Activity” (Journal of Medicinal Chemistry, 2022)
Like-named read-outs stand apart in the source and are kept apart here.

What was measured:
[1] = literature value; cited from earlier work
epileptic activity = tested on: epileptic activity; set-up: method as in PMID 25319542; details: cited from earlier work
Kv7.2/Kv7.3 currents = Kv7.2/Kv7.3 currents (Homo sapiens, UniProt O43525+O43526); details: 3 mM TEA
Protocol: To ensure that both Kv7.2 and Kv7.3 subunits were expressed into the selected clone and formed heteromeric channels, pharmacological experiments with the Kv7 channel blocker tetraethylammonium (TEA) were performed.[64] […] The effect of TEA blockade on Kv7.2/Kv7.3 currents on the selected clone was compared to that of the blockade exerted on the control group, represented by CHO cells transiently transfected with Kv7.2/Kv7.3 channels. The effect of the TEA blockade was investigated using a ramp protocol in which Kv7.2/Kv7.3 currents were activated by 3 s voltage ramps from −80 to +20 mV.

Kv7.2 = details: TEA blockade of Kv7.2; cited from earlier work
Kv7.2/Kv7.3 channel = details: TEA blockade of heteromeric Kv7.2/Kv7.3; cited from earlier work

Chain of Kv7.2/Kv7.3 currents (O43526 whole entry): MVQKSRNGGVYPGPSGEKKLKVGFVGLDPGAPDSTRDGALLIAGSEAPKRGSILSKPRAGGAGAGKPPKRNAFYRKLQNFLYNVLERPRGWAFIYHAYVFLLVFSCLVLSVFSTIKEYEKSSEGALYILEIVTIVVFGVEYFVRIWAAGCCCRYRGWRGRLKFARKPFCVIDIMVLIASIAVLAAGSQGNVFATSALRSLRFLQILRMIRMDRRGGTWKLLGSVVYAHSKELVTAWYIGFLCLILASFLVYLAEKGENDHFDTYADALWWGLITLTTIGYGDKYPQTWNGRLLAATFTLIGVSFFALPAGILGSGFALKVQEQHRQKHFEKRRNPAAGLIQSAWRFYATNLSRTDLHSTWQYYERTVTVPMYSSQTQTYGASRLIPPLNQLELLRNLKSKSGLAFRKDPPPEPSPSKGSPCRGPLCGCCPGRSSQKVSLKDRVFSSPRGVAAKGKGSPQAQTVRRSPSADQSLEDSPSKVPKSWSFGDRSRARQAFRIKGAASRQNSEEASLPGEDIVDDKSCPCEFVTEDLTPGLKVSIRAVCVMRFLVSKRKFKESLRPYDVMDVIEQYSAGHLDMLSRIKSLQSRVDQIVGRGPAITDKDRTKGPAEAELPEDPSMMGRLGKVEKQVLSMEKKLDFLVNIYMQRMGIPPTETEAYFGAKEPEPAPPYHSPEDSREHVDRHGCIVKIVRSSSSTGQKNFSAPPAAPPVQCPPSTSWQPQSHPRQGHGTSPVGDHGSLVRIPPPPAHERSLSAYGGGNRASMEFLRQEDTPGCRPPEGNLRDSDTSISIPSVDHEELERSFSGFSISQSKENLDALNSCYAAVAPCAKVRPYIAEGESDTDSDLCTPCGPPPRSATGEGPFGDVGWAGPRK
Chain of Kv7.2/Kv7.3 currents (O43525 whole entry): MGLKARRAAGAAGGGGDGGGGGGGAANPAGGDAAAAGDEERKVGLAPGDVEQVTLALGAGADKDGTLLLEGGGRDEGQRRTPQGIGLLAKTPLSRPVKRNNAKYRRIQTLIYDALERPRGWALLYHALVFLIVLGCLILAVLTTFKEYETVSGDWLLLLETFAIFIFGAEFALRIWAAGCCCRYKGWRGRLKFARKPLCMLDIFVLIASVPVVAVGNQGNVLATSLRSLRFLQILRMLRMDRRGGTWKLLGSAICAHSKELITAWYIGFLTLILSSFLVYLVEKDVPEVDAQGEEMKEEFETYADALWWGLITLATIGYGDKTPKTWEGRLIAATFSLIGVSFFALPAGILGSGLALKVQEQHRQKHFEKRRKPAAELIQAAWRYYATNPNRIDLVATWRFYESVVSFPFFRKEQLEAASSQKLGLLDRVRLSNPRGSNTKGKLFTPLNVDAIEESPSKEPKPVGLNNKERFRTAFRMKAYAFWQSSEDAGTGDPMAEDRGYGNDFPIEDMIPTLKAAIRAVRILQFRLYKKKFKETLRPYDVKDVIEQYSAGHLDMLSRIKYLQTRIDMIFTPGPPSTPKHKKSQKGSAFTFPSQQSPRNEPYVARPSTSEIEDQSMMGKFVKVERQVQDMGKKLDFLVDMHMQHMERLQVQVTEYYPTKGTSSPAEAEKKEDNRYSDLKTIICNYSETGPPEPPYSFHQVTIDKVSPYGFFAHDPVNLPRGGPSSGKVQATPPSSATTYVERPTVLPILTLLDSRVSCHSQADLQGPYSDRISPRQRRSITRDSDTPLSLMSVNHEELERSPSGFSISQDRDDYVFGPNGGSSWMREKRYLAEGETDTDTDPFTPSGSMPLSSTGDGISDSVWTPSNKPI

Structure (SMILES)	Increase in brain/plasma ratio compared to retigabine [1] [fold]	In vivo potency higher than retigabine (suppression of epileptic activity) (epileptic activity) [times]	logP (Lipophilicity (log P))	Current inhibition (Kv7.2/Kv7.3 currents; CHO cells transiently transfected with Kv7.2/Kv7.3 (control group))	Current inhibition (Kv7.2/Kv7.3 currents; selected stable clone (clone 5))	IC50 (Kv7.2) [µM]	IC50 (Kv7.2/Kv7.3 channel) [µM]
C#CCN(Cc1ccc(F)cc1)c1ccc(NC(=O)OCC)c(N)c1 [P-RET, N-propargyl retigabine]	14	2.5	3.48	–	–	–	–
CC[N+](CC)(CC)CC [TEA, tetraethylammonium]	–	–	–	about 55%	about 35%	300	3000
